The structures appear in SMILES notation.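 Following 48 hours of exposure in 96-well plates, responses at five concentrations were used to interpolate endpoints linearly. TGI marks complete inhibition of growth.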 Some results are limits rather than exact numbers.

The first test deals with OVCAR-3 ovarian. As to the kind of experiment: NCI tumour cell line growth inhibition, 48 h.
`CC(=O)OC1CC(OC2C(O)CC(OC3C(O)CC(OC4CCC5(C)C(CCC6C5CC(O)C5(C)C(C7=CC(=O)OC7)CCC65O)C4)OC3C)OC2C)OC(C)C1OC1OC(CO)C(O)C(O)C1O` (stereo not given) displayed a TGI of 0.15 µM.

The molecule `O=[N+]([O-])c1cccc(-c2csc(NNC3=NC/C(=C/c4ccc5c(c4)OCO5)S3)n2)c1` showed a TGI of over 100 µM.

The next test concerns OVCAR-4 ovarian. Kind of test: NCI tumour cell line growth inhibition, 48 h.
`[N-]=[N+]=NC[C@H]1OCO[C@H](CN=[N+]=[N-])[C@@H](OCCOCCCl)[C@@H]1OCCOCCCl` yielded a TGI of over 100 µM.

`CC(=O)OC1CC(OC2C(O)CC(OC3C(O)CC(OC4CCC5(C)C(CCC6C5CC(O)C5(C)C(C7=CC(=O)OC7)CCC65O)C4)OC3C)OC2C)OC(C)C1OC1OC(CO)C(O)C(O)C1O` (stereo not given) yielded a TGI of 0.207 µM.

Take `O=[N+]([O-])c1cccc(-c2csc(NNC3=NC/C(=C/c4ccc5c(c4)OCO5)S3)n2)c1`: the TGI is over 100 µM.

A further test concerns SW-620 colon. Kind of test: NCI tumour cell line growth inhibition, 48 h.
Turning to `COc1cc(C(=O)N(C(=S)OCc2ccccn2)c2ccccc2)cc(OC)c1OC`, the TGI was over 100 µM.

In the case of `[N-]=[N+]=NC[C@H]1OCO[C@H](CN=[N+]=[N-])[C@@H](OCCOCCCl)[C@@H]1OCCOCCCl`, the TGI was over 100 µM.

For `CC(=O)OC1CC(OC2C(O)CC(OC3C(O)CC(OC4CCC5(C)C(CCC6C5CC(O)C5(C)C(C7=CC(=O)OC7)CCC65O)C4)OC3C)OC2C)OC(C)C1OC1OC(CO)C(O)C(O)C1O` (stereo not given), the TGI worked out at 0.252 µM.

In turn, `O=[N+]([O-])c1cccc(-c2csc(NNC3=NC/C(=C/c4ccc5c(c4)OCO5)S3)n2)c1` yielded a TGI of over 100 µM.

For another test, the system named is RPMI-8226 leukemia. Kind of test: NCI tumour cell line growth inhibition, 48 h.
`COc1cc(C(=O)N(C(=S)OCc2ccccn2)c2ccccc2)cc(OC)c1OC`: the TGI was determined as 99.8 µM.

Molecule `[N-]=[N+]=NC[C@H]1OCO[C@H](CN=[N+]=[N-])[C@@H](OCCOCCCl)[C@@H]1OCCOCCCl` gave a TGI of over 100 µM.

Regarding `CC(=O)OC1CC(OC2C(O)CC(OC3C(O)CC(OC4CCC5(C)C(CCC6C5CC(O)C5(C)C(C7=CC(=O)OC7)CCC65O)C4)OC3C)OC2C)OC(C)C1OC1OC(CO)C(O)C(O)C1O` (stereo not given), the TGI is 25.7 µM.

With `O=[N+]([O-])c1cccc(-c2csc(NNC3=NC/C(=C/c4ccc5c(c4)OCO5)S3)n2)c1`, the TGI worked out at 93.5 µM.

The next test relates to MDA-MB-231 breast. Kind of test: NCI tumour cell line growth inhibition, 48 h.
In turn, `COc1cc(C(=O)N(C(=S)OCc2ccccn2)c2ccccc2)cc(OC)c1OC` returned a TGI of over 100 µM.

Regarding `[N-]=[N+]=NC[C@H]1OCO[C@H](CN=[N+]=[N-])[C@@H](OCCOCCCl)[C@@H]1OCCOCCCl`, the TGI was over 100 µM.

For the molecule `CC(=O)OC1CC(OC2C(O)CC(OC3C(O)CC(OC4CCC5(C)C(CCC6C5CC(O)C5(C)C(C7=CC(=O)OC7)CCC65O)C4)OC3C)OC2C)OC(C)C1OC1OC(CO)C(O)C(O)C1O` (stereo not given), the TGI amounted to 2.41 µM.

`O=[N+]([O-])c1cccc(-c2csc(NNC3=NC/C(=C/c4ccc5c(c4)OCO5)S3)n2)c1`: the TGI is 93.9 µM.

The subject of a further test is MDA-MB-435. As to the kind of experiment: NCI tumour cell line growth inhibition, 48 h.
The molecule `COc1cc(C(=O)N(C(=S)OCc2ccccn2)c2ccccc2)cc(OC)c1OC` came in with a TGI of over 100 µM.

Consider `[N-]=[N+]=NC[C@H]1OCO[C@H](CN=[N+]=[N-])[C@@H](OCCOCCCl)[C@@H]1OCCOCCCl`, for which the TGI was over 100 µM.

For the molecule `CC(=O)OC1CC(OC2C(O)CC(OC3C(O)CC(OC4CCC5(C)C(CCC6C5CC(O)C5(C)C(C7=CC(=O)OC7)CCC65O)C4)OC3C)OC2C)OC(C)C1OC1OC(CO)C(O)C(O)C1O` (stereo not given), the TGI came out at 0.61 µM.

As to `O=[N+]([O-])c1cccc(-c2csc(NNC3=NC/C(=C/c4ccc5c(c4)OCO5)S3)n2)c1`, the TGI was over 100 µM.

A further test relates to SK-MEL-28 melanoma. As to the kind of experiment: NCI tumour cell line growth inhibition, 48 h.
Regarding `COc1cc(C(=O)N(C(=S)OCc2ccccn2)c2ccccc2)cc(OC)c1OC`, the TGI is over 100 µM.

Take `[N-]=[N+]=NC[C@H]1OCO[C@H](CN=[N+]=[N-])[C@@H](OCCOCCCl)[C@@H]1OCCOCCCl`: the TGI is over 100 µM.

Molecule `CC(=O)OC1CC(OC2C(O)CC(OC3C(O)CC(OC4CCC5(C)C(CCC6C5CC(O)C5(C)C(C7=CC(=O)OC7)CCC65O)C4)OC3C)OC2C)OC(C)C1OC1OC(CO)C(O)C(O)C1O` (stereo not given) registered a TGI of 0.979 µM.

A further test has as its system EKVX NSCLC. As to the kind of experiment: NCI tumour cell line growth inhibition, 48 h.
As for `COc1cc(C(=O)N(C(=S)OCc2ccccn2)c2ccccc2)cc(OC)c1OC`, the TGI came out at 79.9 µM.

In turn, `[N-]=[N+]=NC[C@H]1OCO[C@H](CN=[N+]=[N-])[C@@H](OCCOCCCl)[C@@H]1OCCOCCCl` displayed a TGI of over 100 µM.

`CC(=O)OC1CC(OC2C(O)CC(OC3C(O)CC(OC4CCC5(C)C(CCC6C5CC(O)C5(C)C(C7=CC(=O)OC7)CCC65O)C4)OC3C)OC2C)OC(C)C1OC1OC(CO)C(O)C(O)C1O` (stereo not given) had a TGI of 0.0981 µM.

Take `O=[N+]([O-])c1cccc(-c2csc(NNC3=NC/C(=C/c4ccc5c(c4)OCO5)S3)n2)c1`: the TGI amounted to 41 µM.

The subject of another test is HOP-62 NSCLC. As to the kind of experiment: NCI tumour cell line growth inhibition, 48 h.
Consider `[N-]=[N+]=NC[C@H]1OCO[C@H](CN=[N+]=[N-])[C@@H](OCCOCCCl)[C@@H]1OCCOCCCl`, for which the TGI is over 100 µM.

On to `CC(=O)OC1CC(OC2C(O)CC(OC3C(O)CC(OC4CCC5(C)C(CCC6C5CC(O)C5(C)C(C7=CC(=O)OC7)CCC65O)C4)OC3C)OC2C)OC(C)C1OC1OC(CO)C(O)C(O)C1O` (stereo not given), for which the TGI stood at 0.0956 µM.

On to `O=[N+]([O-])c1cccc(-c2csc(NNC3=NC/C(=C/c4ccc5c(c4)OCO5)S3)n2)c1`, for which the TGI was over 100 µM.

The subject of the next test is SF-268 CNS. As to the kind of experiment: NCI tumour cell line growth inhibition, 48 h.
As for `COc1cc(C(=O)N(C(=S)OCc2ccccn2)c2ccccc2)cc(OC)c1OC`, the TGI was over 100 µM.

`[N-]=[N+]=NC[C@H]1OCO[C@H](CN=[N+]=[N-])[C@@H](OCCOCCCl)[C@@H]1OCCOCCCl` gave a TGI of over 100 µM.

As to `CC(=O)OC1CC(OC2C(O)CC(OC3C(O)CC(OC4CCC5(C)C(CCC6C5CC(O)C5(C)C(C7=CC(=O)OC7)CCC65O)C4)OC3C)OC2C)OC(C)C1OC1OC(CO)C(O)C(O)C1O` (stereo not given), the TGI is 0.185 µM.

In the case of `O=[N+]([O-])c1cccc(-c2csc(NNC3=NC/C(=C/c4ccc5c(c4)OCO5)S3)n2)c1`, the TGI came to 69 µM.

For another test, the system named is UACC-257 melanoma. Kind of test: NCI tumour cell line growth inhibition, 48 h.
The molecule `COc1cc(C(=O)N(C(=S)OCc2ccccn2)c2ccccc2)cc(OC)c1OC` registered a TGI of over 100 µM.

Take `[N-]=[N+]=NC[C@H]1OCO[C@H](CN=[N+]=[N-])[C@@H](OCCOCCCl)[C@@H]1OCCOCCCl`: the TGI was over 100 µM.

`CC(=O)OC1CC(OC2C(O)CC(OC3C(O)CC(OC4CCC5(C)C(CCC6C5CC(O)C5(C)C(C7=CC(=O)OC7)CCC65O)C4)OC3C)OC2C)OC(C)C1OC1OC(CO)C(O)C(O)C1O` (stereo not given) showed a TGI of 0.767 µM.

As for `O=[N+]([O-])c1cccc(-c2csc(NNC3=NC/C(=C/c4ccc5c(c4)OCO5)S3)n2)c1`, the TGI is over 100 µM.

The next test concerns OVCAR-8 ovarian. Kind of test: NCI tumour cell line growth inhibition, 48 h.
The molecule `COc1cc(C(=O)N(C(=S)OCc2ccccn2)c2ccccc2)cc(OC)c1OC` showed a TGI of over 100 µM.

In turn, `[N-]=[N+]=NC[C@H]1OCO[C@H](CN=[N+]=[N-])[C@@H](OCCOCCCl)[C@@H]1OCCOCCCl` returned a TGI of over 100 µM.

As for `CC(=O)OC1CC(OC2C(O)CC(OC3C(O)CC(OC4CCC5(C)C(CCC6C5CC(O)C5(C)C(C7=CC(=O)OC7)CCC65O)C4)OC3C)OC2C)OC(C)C1OC1OC(CO)C(O)C(O)C1O` (stereo not given), the TGI was 0.204 µM.

As to `O=[N+]([O-])c1cccc(-c2csc(NNC3=NC/C(=C/c4ccc5c(c4)OCO5)S3)n2)c1`, the TGI amounted to 47.2 µM.

In the next test the test system is SR leukemia. Kind of test: NCI tumour cell line growth inhibition, 48 h.
The molecule `COc1cc(C(=O)N(C(=S)OCc2ccccn2)c2ccccc2)cc(OC)c1OC` returned a TGI of 49 µM.

For `[N-]=[N+]=NC[C@H]1OCO[C@H](CN=[N+]=[N-])[C@@H](OCCOCCCl)[C@@H]1OCCOCCCl`, the TGI was over 100 µM.

Another test relates to SK-MEL-5 melanoma. As to the kind of experiment: NCI tumour cell line growth inhibition, 48 h.
`COc1cc(C(=O)N(C(=S)OCc2ccccn2)c2ccccc2)cc(OC)c1OC`: the TGI is over 100 µM.

The molecule `[N-]=[N+]=NC[C@H]1OCO[C@H](CN=[N+]=[N-])[C@@H](OCCOCCCl)[C@@H]1OCCOCCCl` displayed a TGI of over 100 µM.

For `CC(=O)OC1CC(OC2C(O)CC(OC3C(O)CC(OC4CCC5(C)C(CCC6C5CC(O)C5(C)C(C7=CC(=O)OC7)CCC65O)C4)OC3C)OC2C)OC(C)C1OC1OC(CO)C(O)C(O)C1O` (stereo not given), the TGI was 0.161 µM.

For the molecule `O=[N+]([O-])c1cccc(-c2csc(NNC3=NC/C(=C/c4ccc5c(c4)OCO5)S3)n2)c1`, the TGI came to 38.6 µM.

In the next test the test system is NCI-H226 lung. Kind of test: NCI tumour cell line growth inhibition, 48 h.
Molecule `COc1cc(C(=O)N(C(=S)OCc2ccccn2)c2ccccc2)cc(OC)c1OC` had a TGI of over 100 µM.

`[N-]=[N+]=NC[C@H]1OCO[C@H](CN=[N+]=[N-])[C@@H](OCCOCCCl)[C@@H]1OCCOCCCl` displayed a TGI of over 100 µM.

Regarding `CC(=O)OC1CC(OC2C(O)CC(OC3C(O)CC(OC4CCC5(C)C(CCC6C5CC(O)C5(C)C(C7=CC(=O)OC7)CCC65O)C4)OC3C)OC2C)OC(C)C1OC1OC(CO)C(O)C(O)C1O` (stereo not given), the TGI came to 0.606 µM.

Consider `O=[N+]([O-])c1cccc(-c2csc(NNC3=NC/C(=C/c4ccc5c(c4)OCO5)S3)n2)c1`, for which the TGI was determined as 43.3 µM.

Another test has as its system MCF7 breast. As to the kind of experiment: NCI tumour cell line growth inhibition, 48 h.
`COc1cc(C(=O)N(C(=S)OCc2ccccn2)c2ccccc2)cc(OC)c1OC` yielded a TGI of over 100 µM.

Consider `[N-]=[N+]=NC[C@H]1OCO[C@H](CN=[N+]=[N-])[C@@H](OCCOCCCl)[C@@H]1OCCOCCCl`, for which the TGI is over 100 µM.

For the origin of these results see PubChem BioAssay (NCI).
